Broadly, the IC50 is the concentration at which inhibition is half-maximal.

Assay type in all cases: functional, cell-based
Test [1] deals with HeLa. Put plainly: Antiproliferative activity against human HeLa cells assessed as inhibition of cell growth incubated for 48 hrs by MTT assay.
In test [2] the test system is HGC-27. Put plainly: Antiproliferative activity against human HGC-27 cells assessed as inhibition of cell growth incubated for 48 hrs by MTT assay. The following applies: HGC-27, 48 h, read-out: IC50.
The subject of test [3] is A549. Put plainly: Antiproliferative activity against human A549 cells assessed as inhibition of cell growth incubated for 48 hrs by MTT assay. Particulars: A549, 48 h.
Test [4] has as its system HepG2. Put plainly: Antiproliferative activity against human HepG2 cells assessed as inhibition of cell growth incubated for 48 hrs by MTT assay. Particulars: HepG2, 48 h. (In general: Tetrazolium assays rely on reduction of a dye to a coloured formazan, in cell work by metabolically active cells.)

As to `CC(C)(C)c1ccc(S(=O)(=O)N2C[C@@H]3CCCN4CCC[C@@H]([C@H]34)[C@H]2CCCc2nc3cc(Cl)ccc3n2S(=O)(=O)c2ccc(C(C)(C)C)cc2)cc1`, the half-maximal inhibitory concentration (IC50) in test [1] is 66.3 µM; in test [2] it was 58.9 µM; in test [3], 77.5 µM; in test [4] it was greater than 80 µM.
On to `O=S(=O)(c1ccc(Br)cc1)N1C[C@@H]2CCCN3CCC[C@@H]([C@H]23)[C@H]1CCCc1nc2cc(Cl)ccc2n1S(=O)(=O)c1ccc(Br)cc1`, for which the IC50 is 59.6 µM in test [1], 77.2 µM in test [2], 79.9 µM in test [3] and greater than 80 µM in test [4].
The matching figures for `Cn1c(CCC[C@@H]2[C@H]3CCCN4CCC[C@@H](CN2C(=O)OCC2c5ccccc5-c5ccccc52)[C@@H]34)nc2ccc([N+](=O)[O-])cc21`: 23.8 µM, 11.1 µM, 31 µM and 13.8 µM.
As to `Cc1ccc(S(=O)(=O)N2C[C@@H]3CCCN4CCC[C@@H]([C@H]34)[C@H]2CCCc2nc3cc([N+](=O)[O-])ccc3n2S(=O)(=O)c2ccc(C)cc2)cc1`, the IC50 in test [1] was greater than 80 µM; in test [2] it was 47.4 µM; in test [3] it was 53.2 µM; in test [4], 52.3 µM.
For the compound `CC(C)(C)c1ccc(S(=O)(=O)N2C[C@@H]3CCCN4CCC[C@@H]([C@H]34)[C@H]2CCCc2nc3ccccc3n2S(=O)(=O)c2ccc(C(C)(C)C)cc2)cc1`, the IC50 in test [1] came out at 55.6 µM; in test [2], 22.2 µM; in test [3], 59.7 µM; in test [4], 11.6 µM.
For the compound `C[C@]1(c2nc3c(C(N)=O)cccc3[nH]2)CCCN1` [VELIPARIB], the IC50 in test [1] turned out to be 18.1 µM; in test [2], 16 µM; in test [3] it was 15.2 µM; in test [4], 13.7 µM.
The like results for `CC(C)(C)c1ccc(S(=O)(=O)N2C[C@@H]3CCCN4CCC[C@@H]([C@H]34)[C@H]2CCCc2nc3cc([N+](=O)[O-])ccc3n2S(=O)(=O)c2ccc(C(C)(C)C)cc2)cc1` were, in that order, 65.6 µM, 44.2 µM, 62.8 µM and 50.2 µM.
Take `O=C(OCC1c2ccccc2-c2ccccc21)N1C[C@@H]2CCCN3CCC[C@@H]([C@H]23)[C@H]1CCCc1nc2ccc(C(F)(F)F)cc2n1C(=O)OCC1c2ccccc2-c2ccccc21`: the concentration for half-maximal inhibition (IC50) in test [1] was found to be 21.2 µM; in test [2], 27.8 µM; in test [3], 19 µM; in test [4], 28.6 µM.
Turning to `Cc1ccc(S(=O)(=O)N2C[C@@H]3CCCN4CCC[C@@H]([C@H]34)[C@H]2CCCc2nc3ccccc3n2S(=O)(=O)c2ccc(C)cc2)cc1`, the IC50 in test [1] stood at 49.6 µM; in test [2] it was 18.2 µM; in test [3] it was 69.9 µM; in test [4], 13.5 µM.
The like results for `O=C(OCC1c2ccccc2-c2ccccc21)N1C[C@@H]2CCCN3CCC[C@@H]([C@H]23)[C@H]1CCCc1nc2ccc(Cl)cc2[nH]1` were, in that order, 20.4 µM, 15.2 µM, 36.3 µM and 19.7 µM.
In the case of `CC(C)(C)c1ccc(S(=O)(=O)N2C[C@@H]3CCCN4CCC[C@@H]([C@H]34)[C@H]2CCCc2nc3ccc([N+](=O)[O-])cc3n2S(=O)(=O)c2ccc(C(C)(C)C)cc2)cc1`, the IC50 in test [1] came out at 70.1 µM; in test [2], 47.8 µM; in test [3], 69.3 µM; in test [4] it was 52.8 µM.
The matching figures for `O=C(CCC[C@@H]1[C@H]2CCCN3CCC[C@@H](CN1C(=O)OCC1c4ccccc4-c4ccccc41)[C@@H]23)NCCCc1nc2ccc(C(F)(F)F)cc2[nH]1`: 13.2 µM, 19.7 µM, 18.7 µM and 22.5 µM.
The matching figures for `CC(C)(C)c1ccc(S(=O)(=O)N2C[C@@H]3CCCN4CCC[C@@H]([C@H]34)[C@H]2CCCc2nc3ccc(Cl)cc3n2S(=O)(=O)c2ccc(C(C)(C)C)cc2)cc1`: 78.5 µM, 60.3 µM, 67.2 µM and 70.7 µM.
Turning to `O=C(CCC[C@@H]1[C@H]2CCCN3CCC[C@@H](CN1C(=O)OCC1c4ccccc4-c4ccccc41)[C@@H]23)NCCCc1nc2ccccc2[nH]1`, the IC50 in test [1] is 21.7 µM; in test [2], 24.4 µM; in test [3] it was 30.7 µM; in test [4], 37.4 µM.
For the compound `O=S(=O)(c1ccc(Cl)cc1)N1C[C@@H]2CCCN3CCC[C@@H]([C@H]23)[C@H]1CCCc1nc2ccc(Cl)cc2n1S(=O)(=O)c1ccc(Cl)cc1`, the IC50 in test [1] worked out at 53.2 µM; in test [2], 12.1 µM; in test [3] it was 46.1 µM; in test [4], 11.2 µM.
As for `Cn1c(CCCNC(=O)CCC[C@@H]2[C@H]3CCCN4CCC[C@@H](CN2C(=O)OCC2c5ccccc5-c5ccccc52)[C@@H]34)nc2ccc([N+](=O)[O-])cc21`, the half-maximal inhibitory concentration (IC50) in test [1] was 15.5 µM; in test [2], 16.8 µM; in test [3] it was 20.6 µM; in test [4], 23.8 µM.
As to `O=S(=O)(c1ccc(Cl)cc1)N1C[C@@H]2CCCN3CCC[C@@H]([C@H]23)[C@H]1CCCc1nc2cc(Cl)ccc2n1S(=O)(=O)c1ccc(Cl)cc1`, the IC50 was greater than 80 µM in test [1], 18.4 µM in test [2], 68.3 µM in test [3] and 21.6 µM in test [4].
Regarding `O=S(=O)(c1ccc(Br)cc1)N1C[C@@H]2CCCN3CCC[C@@H]([C@H]23)[C@H]1CCCc1nc2ccc(Cl)cc2n1S(=O)(=O)c1ccc(Br)cc1`, the IC50 in test [1] is 71.2 µM; in test [2], 29.3 µM; in test [3], 68.2 µM; in test [4], 32.2 µM.
For the compound `O=S(=O)(c1cccc2ccccc12)N1C[C@@H]2CCCN3CCC[C@@H]([C@H]23)[C@H]1CCCc1nc2ccc(F)cc2n1S(=O)(=O)c1cccc2ccccc12`, the IC50 in test [1] was found to be 40 µM; in test [2], 12.4 µM; in test [3], 62.4 µM; in test [4], 19.8 µM.
Regarding `O=C(OCC1c2ccccc2-c2ccccc21)N1C[C@@H]2CCCN3CCC[C@@H]([C@H]23)[C@H]1CCCc1nc2ccc(C(F)(F)F)cc2[nH]1`, the IC50 in test [1] is 25.5 µM; in test [2], 25.6 µM; in test [3], 33.6 µM; in test [4], 27.7 µM.
As to `O=C(OCC1c2ccccc2-c2ccccc21)N1C[C@@H]2CCCN3CCC[C@@H]([C@H]23)[C@H]1CCCc1nc2ccc(Br)cc2[nH]1`, the IC50 in test [1] came out at 15.1 µM; in test [2] it was 10.4 µM; in test [3] it was 20.8 µM; in test [4], 11.6 µM.
The matching figures for `Cc1ccc(S(=O)(=O)N2C[C@@H]3CCCN4CCC[C@@H]([C@H]34)[C@H]2CCCc2nc3ccc([N+](=O)[O-])cc3n2S(=O)(=O)c2ccc(C)cc2)cc1`: 71.8 µM, 40.2 µM, 74.2 µM and 40 µM.
The matching figures for `O=C(OCC1c2ccccc2-c2ccccc21)N1C[C@@H]2CCCN3CCC[C@@H]([C@H]23)[C@H]1CCCc1nc2ccccc2n1C(=O)OCC1c2ccccc2-c2ccccc21`: 16.6 µM, 13.8 µM, 24.1 µM and 16.5 µM.
